In paper PMC10816046, “The Interaction and Effect of a Small MitoBlock Library as Inhibitor of ALR Protein–Protein Interaction Pathway” (International Journal of Molecular Sciences, 2024):

How the values were obtained:
ALR (SF-ALR) [1] = molecular target: T1, ALR (SF-ALR) (Homo sapiens, UniProt P55789); experiment: 1H-15N HSQC NMR titration of […] SF-ALR (slow exchange); IC50 from Amplex Red-HRP assay with pure enzyme; assay type: biochemical
T1 construct: gene GFER; SF-ALR, residues 81–205

ALR (SF-ALR) [2] = molecular target: T1, ALR (SF-ALR); experiment: 1H-15N HSQC NMR titration (slow exchange); assay type: binding

T1 sequence (P55789 81-205): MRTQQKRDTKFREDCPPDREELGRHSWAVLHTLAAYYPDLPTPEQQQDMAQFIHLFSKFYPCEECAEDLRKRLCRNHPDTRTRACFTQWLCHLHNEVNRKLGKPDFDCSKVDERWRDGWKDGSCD

IC50 (ALR (SF-ALR) [1]) [µM] | Compound | 1H-15N HSQC NMR titration (slow exchange) (ALR (SF-ALR) [2])
9.02 | CC(=O)Nc1cccc(-c2csc(Nc3ccc(C)cn3)n2)c1 [MB-8] | 
10.7 | Nc1ccc(N2CCN(C(=O)c3ccco3)CC2)cc1 [MB-13] | 
 | CN(c1ccc(C2=NN=C(NC3CC3)SC2)cc1)S(C)(=O)=O [MB-7] | perturbation on the HN signals in the 2D NMR spectra (ES-1, MB-5, MB-7, MB-8, and MB-13)
